The values below are quoted from earlier work in PMC12284023, “Metabolomic and chemometric profiling of crimson grapes during drying and its impact on antidiabetic activity” (NPJ Science of Food, 2025).

≈ marks a conversion by molar mass, not a printed value.

The target of series [1] is α-glucosidase enzyme. On the set-up: method as in ref 56 = [56]; 56. Cásedas G Cyanidin-3-O-glucoside inhibits different enzymes involved in central nervous system pathologies and type-2 diabetes South Afr. J. Bot. 2019 120 241 246 Cásedas, G. et al. Cyanidin-3-O-g. Conditions: read-out: IC50 against α-glucosidase enzyme.
Series [2] has as its system streptozotocin-induced diabetic mouse. On the set-up: method as in ref 57 = [57]; 57. Choi K Choi S-I Park MH Han J-S Cyanidin-3-O-glucoside ameliorates postprandial hyperglycemia in diabetic mice J. Life Sci. 2017 27 32 37 Choi, K., Choi, S.-I., Park, M. H. & Han, J.-S. Cyanidin-3. Conditions: oral administration of soluble starch with compound, streptozotocin-induced diabetic mouse ref 57.

The target of series [3] is pancreatic lipase. More on the design: method as in PMID 26284613. Conditions: in vitro, dose-dependent ref 61.
Series [4] concerns streptozotocin-induced diabetic rats. On the set-up: method as in PMID 35932369. Conditions: streptozotocin-induced diabetic rats ref 62.
Series [5] concerns streptozotocin-injected rat. More on the design: method as in PMID 32446112. Conditions: via suppressing uric acid, plasma glucose, triglyceride, total cholesterol, creatinine, IL-6, TNF-α, MCP-1 levels ref 60.
The subject of series [6] is diabetic mice. On the set-up: method as in ref 58 = [58]; 58. Ding H Blood glucose-lowering activity of protocatechuic acid is mediated by inhibiting α-glucosidase Food Sci. Hum. Wellness 2024 13 1212 1219 Ding, H. et al. Blood glucose-lowering activity of p. Conditions: diabetic mice ref 58.
The test system of series [7] is glycation products such as 5-hydroxymethylfurfural, fructosamine, and advanced glycation end products. On the set-up: method as in ref 58 = [58]; 58. Ding H Blood glucose-lowering activity of protocatechuic acid is mediated by inhibiting α-glucosidase Food Sci. Hum. Wellness 2024 13 1212 1219 Ding, H. et al. Blood glucose-lowering activity of p. Conditions: advanced glycation end products ref 58.

On to `OC[C@H]1O[C@@H](Oc2cc3c(O)cc(O)cc3[o+]c2-c2ccc(O)c(O)c2)[C@H](O)[C@@H](O)[C@@H]1O` [Cyanidin-3-O-glucoside], for which the IC50 in series [1] is 480 µM. Also, in series [2], the “levels of postprandial blood glucose” value is given as “significantly decreased”.

In the case of `O=c1ccc2cc(O[C@@H]3O[C@H](CO)[C@@H](O)[C@H](O)[C@H]3O)c(O)cc2o1` [Esculin], the “IC50 pancreatic lipase inhibition” value in series [3] is 11.6 ± 0.92 µg/mL (≈ 34.1 µM).

In the case of `CC(C)(C)[C@]1(O)CC2OC(=O)CC23C(=O)OC2OC(=O)[C@H](O)C231` (some centres unmarked) [bilobalide, Bilobalide], in series [4], the anti-retinopathy activity entry was “exhibited anti-retinopathy activity” and the blood glucose levels result is “decreased blood glucose levels”.

As to `CC(C)[C@@H](C)/C=C/[C@@H](C)[C@H]1CC[C@H]2C3=CC=C4C[C@@H](O)CC[C@]4(C)[C@H]3CC[C@]12C` [ergosterol, Ergosterol], the diabetic nephropathy entry in series [5] is “attenuated diabetic nephropathy”.

Turning to `O=C(O)c1ccc(O)c(O)c1` [protocatechuic acid], in series [6], the postprandial hypoglycemic activity result was “acclaimed postprandial hypoglycemic activity”.

`O=C(O)[C@H]1O[C@@H](Oc2c(-c3ccc(O)c(O)c3)oc3cc(O)cc(O)c3c2=O)[C@H](O)[C@@H](O)[C@@H]1O` [quercetin-3-O-glucuronide, Quercetin-3-O-glucuronide]: the “suppression of glycation products” value in series [7] is “effectively suppressed”.

For orientation: IC50 means the concentration needed to halve the response being measured.
